Assays:
RXF 393 = assay: panel of 60 human tumor cell lines, growth inhibition (Renal Cancer); settings: for Percent Growth: RXF 393
HOP-92 = assay: panel of 60 human tumor cell lines, growth inhibition (Non-Small Cell Lung Cancer); settings: for Percent Growth: HOP-92
MOLT-4 = assay: panel of 60 human tumor cell lines, growth inhibition (Leukemia)
IGROV1 = assay: panel of 60 human tumor cell lines, growth inhibition (Ovarian Cancer); settings: for Percent Growth: IGROVI
DU-145 = assay: panel of 60 human tumor cell lines, growth inhibition (Prostate Cancer)
A498 = assay: panel of 60 human tumor cell lines, growth inhibition (Renal Cancer)
UACC-62 = assay: panel of 60 human tumor cell lines, growth inhibition (Melanoma)
NCI-H23 = assay: panel of 60 human tumor cell lines, growth inhibition (Non-Small Cell Lung Cancer)
COLO 205 = assay: panel of 60 human tumor cell lines, growth inhibition (Colon Cancer)
PC-3 = assay: panel of 60 human tumor cell lines, growth inhibition (Prostate Cancer); settings: Homo sapiens

C=C1C(=O)O[C@H]2[C@H]1CC/C(COC(=O)CCC(=O)NCc1ccc(Cl)nc1)=C\CC[C@@]1(C)O[C@@H]21 [JVM 96]
GI50 (RXF 393; Homo sapiens, RXF 393, RXF 393): 3.57 µM
CC50 (RXF 393; Homo sapiens, RXF 393, read-out: LC50): 48.4 µM
IC (TGI) (RXF 393; Homo sapiens, RXF 393, read-out: TGI): 14.4 µM
Percent Growth (RXF 393; Log10 Concentration −4.0): −80%
Percent Growth (RXF 393; Log10 Concentration −5.0): 15%
Percent Growth (RXF 393; Log10 Concentration −6.0): 93%
Percent Growth (RXF 393; Log10 Concentration −7.0): 100%
Percent Growth (RXF 393; Log10 Concentration −8.0): 93%
Percent Growth (HOP-92; Log10 Concentration −4.0): −93%
Percent Growth (HOP-92; Log10 Concentration −5.0): −2%
Percent Growth (HOP-92; Log10 Concentration −6.0): 90%
Percent Growth (HOP-92; Log10 Concentration −7.0): 93%
Percent Growth (HOP-92; Log10 Concentration −8.0): 93%
GI50 (HOP-92; Homo sapiens, HOP-92, HOP-92): 2.72 µM
CC50 (HOP-92; Homo sapiens, HOP-92, read-out: LC50): 33.7 µM
IC (TGI) (HOP-92; Homo sapiens, HOP-92, read-out: TGI): 9.47 µM
GI50 (MOLT-4; Homo sapiens, MOLT-4): 6.22 µM
CC50 (MOLT-4; Homo sapiens, MOLT-4, read-out: LC50): > 100 µM
IC (TGI) (MOLT-4; Homo sapiens, MOLT-4, read-out: TGI): 38.2 µM
Percent Growth (MOLT-4; MOLT-4, Log10 Concentration −4.0): −25%
Percent Growth (MOLT-4; MOLT-4, Log10 Concentration −5.0): 34%
Percent Growth (MOLT-4; MOLT-4, Log10 Concentration −6.0): 110%
Percent Growth (MOLT-4; MOLT-4, Log10 Concentration −7.0): 105%
Percent Growth (MOLT-4; MOLT-4, Log10 Concentration −8.0): 97%
GI50 (IGROV1; Homo sapiens, IGROV-1): 16.7 µM
CC50 (IGROV1; Homo sapiens, IGROV-1, read-out: LC50): 95.5 µM
IC (TGI) (IGROV1; Homo sapiens, IGROV-1, read-out: TGI): 39.9 µM
Percent Growth (IGROV1; Log10 Concentration −4.0): −53%
Percent Growth (IGROV1; Log10 Concentration −5.0): 79%
Percent Growth (IGROV1; Log10 Concentration −6.0): 107%
Percent Growth (IGROV1; Log10 Concentration −7.0): 106%
Percent Growth (IGROV1; Log10 Concentration −8.0): 107%
Percent Growth (DU-145; DU-145, Log10 Concentration −4.0): −97%
Percent Growth (DU-145; DU-145, Log10 Concentration −5.0): 16%
Percent Growth (DU-145; DU-145, Log10 Concentration −6.0): 98%
Percent Growth (DU-145; DU-145, Log10 Concentration −7.0): 106%
Percent Growth (DU-145; DU-145, Log10 Concentration −8.0): 99%
GI50 (DU-145; Homo sapiens, DU-145): 3.84 µM
CC50 (DU-145; Homo sapiens, DU-145, read-out: LC50): 38.4 µM
IC (TGI) (DU-145; Homo sapiens, DU-145, read-out: TGI): 13.9 µM
Percent Growth (A498; A498, Log10 Concentration −4.0): −95%
Percent Growth (A498; A498, Log10 Concentration −5.0): 74%
Percent Growth (A498; A498, Log10 Concentration −6.0): 95%
Percent Growth (A498; A498, Log10 Concentration −7.0): 107%
Percent Growth (A498; A498, Log10 Concentration −8.0): 96%
GI50 (A498; Homo sapiens, A498): 13.9 µM
CC50 (A498; Homo sapiens, A498, read-out: LC50): 54.2 µM
IC (TGI) (A498; Homo sapiens, A498, read-out: TGI): 27.5 µM
GI50 (UACC-62; Homo sapiens, UACC-62): 6.61 µM
CC50 (UACC-62; Homo sapiens, UACC-62, read-out: LC50): 51.2 µM
IC (TGI) (UACC-62; Homo sapiens, UACC-62, read-out: TGI): 20.9 µM
Percent Growth (UACC-62; UACC-62, Log10 Concentration −4.0): −87%
Percent Growth (UACC-62; UACC-62, Log10 Concentration −5.0): 41%
Percent Growth (UACC-62; UACC-62, Log10 Concentration −6.0): 90%
Percent Growth (UACC-62; UACC-62, Log10 Concentration −7.0): 98%
Percent Growth (UACC-62; UACC-62, Log10 Concentration −8.0): 98%
GI50 (NCI-H23; Homo sapiens, NCI-H23): 18.4 µM
CC50 (NCI-H23; Homo sapiens, NCI-H23, read-out: LC50): > 100 µM
IC (TGI) (NCI-H23; Homo sapiens, NCI-H23, read-out: TGI): 45.7 µM
Percent Growth (NCI-H23; NCI-H23, Log10 Concentration −4.0): −43%
Percent Growth (NCI-H23; NCI-H23, Log10 Concentration −5.0): 83%
Percent Growth (NCI-H23; NCI-H23, Log10 Concentration −6.0): 103%
Percent Growth (NCI-H23; NCI-H23, Log10 Concentration −7.0): 103%
Percent Growth (NCI-H23; NCI-H23, Log10 Concentration −8.0): 96%
Percent Growth (COLO 205; COLO 205, Log10 Concentration −4.0): −90%
Percent Growth (COLO 205; COLO 205, Log10 Concentration −5.0): 1%
Percent Growth (COLO 205; COLO 205, Log10 Concentration −6.0): 103%
Percent Growth (COLO 205; COLO 205, Log10 Concentration −7.0): 105%
Percent Growth (COLO 205; COLO 205, Log10 Concentration −8.0): 109%
GI50 (COLO 205; Homo sapiens, COLO 205): 3.3 µM
CC50 (COLO 205; Homo sapiens, COLO 205, read-out: LC50): 36.6 µM
IC (TGI) (COLO 205; Homo sapiens, COLO 205, read-out: TGI): 10.3 µM
GI50 (PC-3; PC-3): 15.6 µM
CC50 (PC-3; PC-3, read-out: LC50): 75.7 µM
